Experimental data taken from patent US9895357B2, “Compositions, methods and kits for reducing lipid levels” (NuSirt Sciences, Inc., priority 2013, dated 2018).

What was measured:
C. elegans = test: Lifespan in C. elegans; assay type: in vivo, Caenorhabditis elegans; details: leucine 0.5 mM, nicotinic acid 10 nM; basal conditions
Method: Eggs were hatched on a starved plate overnight. […] To study lifespan, 50 young adult worms were placed on NGM agar plates seeded with E. coli strain OP-50 (=day 1 of study). All treatments were added with the indicated concentrations to E. coli the agar plates. […] The worms were maintained at 20° C. throughout the duration of the study. Worms were transferred to new plates daily to eliminate progeny. […] The study was continued until the last animal was dead. Data were analyzed via Kaplan-Meier survival curves using Prism 6 (GraphPad Software) and statistical significance was determined by the Log-rank (Mantel-Cox) test.

[1] = test system: LDL receptor knockout (LDLRKO) mice; test: Example 7: plasma total cholesterol, cholesterol esters and triglycerides in LDLRKO mice on western diet; assay type: in vivo; details: four weeks
Method: (§1) The mice were provided free access to an atherogenic western diet (WD) containing 0.21% cholesterol (by weight) and 40% calories from fat and water for 4 weeks prior to treatment. […] The treatments were administered for eight weeks continuously.
Blood samples of the mice in all groups were obtained from tails of the mice at following four and eight weeks of administration. The serum/plasma levels of triglyceride, total cholesterol and cholesterol esters were measured. Following treatment, food was removed for four hours and the animals were euthanized.
Blood was collected into EDTA-coated tubes to analyze plasma lipid and cholesterol profiles. Plasma total cholesterol (TC, Pointe Scientific, Canton, Mich.), free cholesterol (FC, Wako, Richmond, Va.) and triglyceride (TG, Wako, Richmond, Va.) concentrations were measured using enzymatic assays according to manufacturer's instructions. Cholesterol ester (CE) was calculated as the difference between TC and FC.

AMPK [2] = details: 0.5 mM for leucine and 5 μM for HMB; previously shown; cited from earlier work
Sirt1 [3] = details: 0.5 mM for leucine and 5 μM for HMB; previously shown; cited from earlier work
[4] = test system: LDL receptor knockout (LDLRKO) mice; test: Example 7: aortic macrophage infiltration (CD68 positive area) in LDLRKO mice; assay type: in vivo; details: eight weeks
Method: as §1
To assess macrophage infiltration, Sections of aortic sinus were immuno-stained with rat monoclonal antibody against macrophage-specific CD68 (Clone FA11, 1:75, AbD Serotec, Raleigh, N.C.) followed by staining with alkaline phosphatase-conjugated mouse anti-rat (for CD68, 1:50) secondary antibodies (Jackson ImmunoResearch laboratories, West Grove, Pa.). Control slides contain no primary antibody. The CD68-positive areas were analyzed using Image-Pro Plus software (Media Cybemetics, Bethesda, Md.).

[5] = test system: LDL receptor knockout (LDLRKO) mice; test: Example 7: atherosclerotic lesion area and Oil Red O positive area in LDLRKO mice; assay type: in vivo; details: eight weeks
Method: as §1
To assess atherosclerosis, the circulatory system was perfused following euthanasia with phosphate-buffered saline (PBS) before removing the heart and aorta. The upper one-third of the heart was dissected and embedded in Optimal Cutting Temperature Compound (Sakura Tissue-Tek, Torrance, Calif.), frozen, and stored at −80° C. Blocks were serially cut at 8 μm intervals and stained with hematoxylin and 0.5% Oil Red O (Sigma-Aldrich) to evaluate aortic sinus atherosclerotic intimal area. Atherosclerotic lesion area and Oil Red O positive area were quantified using Image-Pro Plus software (Media Cybemetics, Bethesda, Md.). Whole aorta (from sinotubular junction to iliac bifurcate) was dissected and fixed in 10% formalin, and the adventitia was cleaned. Aortas were opened along the longitudinal axis and pinned onto black silicon elastomer (Rubber-Cal, Santa Ana, Calif.) for the quantification of atherosclerotic lesion area. The percentage of total aortic surface covered with atherosclerotic lesions was quantified by Image-Pro Plus software (Media Cybemetics, Bethesda, Md.) and used to determine the total lesion area.

[6] = oral dosing of about 3,000 mg; cited from earlier work
[7] = test system: LDL receptor knockout (LDLRKO) mice; details: NA alone 10 g/kg diet = group (e); NA 250 mg + Leu 24 g/kg diet; groups (a)-(d) as
Method: All chemicals are purchased from Sigma.
The serum/plasma levels of triglyceride, cholesterol, LDL and HDL are measured. Cutaneous vasodilation is measured by laser-Doppler flowmeter.

Sirt1 [8] = test system: Sirt1
Method: C2C12 mouse myoblasts (American Type Culture Collection) were plated at a density of 8000 cells/cm^2 (10 cm^2 dish) and grown in Dulbecco's modified eagle's medium (DMEM) containing 10% fetal bovine serum (FBS), and antibiotics (growth medium) at 37° C. in 5% CO2. For differentiation of C2C12 cells, cells were grown to 100% confluence, transferred to differentiation medium (DMEM with 2% horse serum and 1% penicillin-streptomycin), and fed with fresh differentiation medium every day until myotubes were fully formed (3 days).
Total 35 μg of protein from the cell lysate was resolved on 10% Tris/HCL polyacrylamide gels (Criterion precast gel, Bio-Rad Laboratories, Hercules, Calif.), transferred to PVDF membranes, incubated in blocking buffer (3% BSA in TBS), incubated with primary antibody, washed and incubated with secondary horseradish peroxidase-conjugated antibody.

[9] = test system: Patients pre-diagnosed with hyperlipidemia; details: NA alone 3000 mg = group (e); NA 50 mg + Leu 1135 mg; groups (a)-(d) as
Method: Patients that are pre-diagnosed with hyperlipidemia are admitted for the randomized and double blind study. […] The treatments are administered orally twice a day, for 60 days continuously.
Blood samples of the patients in all groups are obtained from at day 0, 30 and 60 after the administration. The serum/plasma levels of triglyceride, cholesterol, LDL and HDL are measured. Cutaneous vasodilation is measured by laser-Doppler flowmeter and the discomfort level described by the patients.

AMPK [10] = test system: AMPK
Method: 3T3-L1 preadipocytes (American Type Culture Collection) were plated at a density of 8000 cells/cm2 (10 cm2 dish) and grown in Dulbecco's modified eagle's medium (DMEM) containing 10% fetal bovine serum (FBS), and antibiotics (growth medium) at 37° C. in 5% CO2. […] Preadipocytes were maintained in this differentiation medium for 3 days and subsequently cultured in growth medium. Cultures were re-fed every 2-3 days to allow >90% cells to reach fully differentiation before conducting chemical treatment.
Western blotting was performed with antibodies against AMPK and Phospho-AMPKα (Thr172) obtained from Cell Signaling (Danvers, Mass.). […] Total 30 μg of protein from the cell lysate was resolved on 10% Tris/HCL polyacrylamide gels (Criterion precast gel, Bio-Rad Laboratories, Hercules, Calif.), transferred to PVDF membranes, incubated in blocking buffer (3% BSA in TBS), incubated with primary antibody (P-AMPK), washed and incubated with secondary horseradish peroxidase-conjugated antibody.

[11] = leucine 24 g/kg diet alone, or with nicotinic acid 50 or 250 mg/kg diet, compared with NA 1,000 mg/kg diet
[12] = leucine 24 g/kg diet alone, or with nicotinic acid 50 mg/kg diet, compared with NA 1,000 mg/kg diet

Compound: CC(C)C[C@H](N)C(=O)O [leucine]
- effect on lifespan (C. elegans): no independent effect
- effect on plasma cholesterol esters [1, 11]: no independent effect
- effect on plasma total cholesterol [1, 11]: no independent effect
- therapeutic effect on these variables when administered alone (AMPK [2]): no therapeutic effect
- therapeutic effect on these variables when administered alone (Sirt1 [3]): no therapeutic effect
- effect on aortic macrophage infiltration [4, 12]: significant independent effect on reducing macrophage infiltration
- effect on lesion (plaque) area [5, 12]: exerted an independent effect on plaque area

Compound: NC(=O)c1ccc[n+]([C@@H]2O[C@H](CO)[C@@H](O)[C@H]2O)c1 [nicotinamide riboside]
- circulating level of nicotinic acid or nicotinamide riboside [6]: about 10 μM

Compound: O=C(O)c1cccnc1 [nicotinic acid]
- effect on lifespan (C. elegans): no independent effect
- circulating level of nicotinic acid or nicotinamide riboside [6]: about 10 μM
- decrease in plasma total cholesterol ([1]; nicotinic acid 1,000 mg/kg diet added to western diet, p<0.01): 20%
- decrease in plasma cholesterol esters ([1]; nicotinic acid 1,000 mg/kg diet, CE calculated as TC minus FC, p<0.002): 28%
- decrease in plasma triglycerides ([1]; nicotinic acid 1,000 mg/kg diet, p<0.01): 32%
- cutaneous vasodilation [7]: significant higher cutaneous vasodilation
- effect on Sirt1 levels (Sirt1 [8]; C2C12 myotubes, 24 hours, nicotinic acid 10 nM alone or with 0.5 mM leucine): did not have a significant effect
- concentrations of nicotinic acid alone found to exert no effect (Sirt1 [8]; dose-response study, C2C12 cells): < 100 nM
- cutaneous vasodilation and patient complaints [9]: significant higher cutaneous vasodilation and more complaints from the patients
- AMPK activation (P-AMPK/AMPK) (AMPK [10]; differentiated 3T3-L1 adipocytes, 24 hours, nicotinic acid 10 nM, leucine 0.5 mM, resveratrol 200 nM): no significant effect
- concentrations of nicotinic acid alone found to exert no effect (AMPK [10]; dose-response study, 3T3-L1 cells): < 100 nM
- decrease in aortic macrophage infiltration ([4]; nicotinic acid 1,000 mg/kg diet, % CD68 positive area): ~50%
- decrease in atherosclerotic lesion size ([5]; nicotinic acid 1,000 mg/kg diet, relative to western diet alone): ~50%
